Reference: patent publication US5118811A, “Amino acid derivatives possessing prolyl endopeptidase-inhibitory activities” (Japan Tobacco Inc., priority 1989, dated 1992)

Tests used:
[1] = biological target: T1, trypsin (Bos taurus, UniProt P00760); assay: Trypsin-Inhibitory Activity; type: biochemical, bovine; conditions: 1 × 10^-6 M; read-out: Inhibition rate, trypsin
T1 construct: purchased Sigma; host or cells: bovine pancreas
T1 sequence (P00760 24-246): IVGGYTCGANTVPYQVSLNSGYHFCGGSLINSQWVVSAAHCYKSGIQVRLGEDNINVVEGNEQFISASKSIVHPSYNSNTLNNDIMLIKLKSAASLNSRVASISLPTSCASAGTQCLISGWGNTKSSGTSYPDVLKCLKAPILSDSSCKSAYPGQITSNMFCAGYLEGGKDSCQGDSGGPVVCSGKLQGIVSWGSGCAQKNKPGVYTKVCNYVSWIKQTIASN
Protocol: In the present invention, a 50 mM Tris-HCl buffer (pH 8.0) was employed as a buffer for measurement.
To a mixture of the above-mentioned buffer (850 μl), a solution of the compounds of the present invention in the same buffer (50 μl) and a 0.02 μM solution of trypsin (derived from bovine pancreas, Sigma) in the same buffer (50 μl) was added a 200 μM solution of 7-(prolyl-phenylaranyl-arginyl)-4-methylcoumarinamide (Peptide Institute, Inc.) in the same buffer (50 μl), and the mixture was incubated at 30° C. for 1 hour. The reaction mixture was immersed in ice (0° C.) to terminate the reaction, and the fluorescence (b1) was determined 1 hour later (excitation at 370 nm and emission at 440 nm). Concurrently, there were conducted the experiment wherein, in the system above, the trypsin solution was substituted for a buffer alone, and the experiment wherein the solution of the compounds of the present invention was also substituted for a buffer above. Each fluorescence (b2 and b3) was also determined respectively.
(§1) Using the fluorescence x1, x2 and x3 measured in the above-mentioned manner, the inhibitory rate against various proteases was calculated by the following formula where x stands for b, c, d, e or f: [formula]

[2] = biological target: T2, prolyl endopeptidase (Rattus norvegicus, UniProt O70196); assay: Prolyl Endopeptidase-Inhibitory Activity; type: biochemical; conditions: for inhibition at 1 µM: 1 × 10^-6 M, read-out: Inhibition rate, prolyl endopeptidase; for IC50: prolyl endopeptidase extracted from rat brain, pH 7.0, 30° C., preincubated 30 minutes, 1 hour
T2 construct: prolyl endopeptidase extracted from rat brain; from tissue; host or cells: rat brain
Protocol: A mixture of a 0.1M potassium sodium phosphate buffer (pH 7.0) (2675 μl), a solution of the compounds of the present invention in a 0.1M potassium sodium phosphate buffer (pH 7.0) (100 μl) and a solution of prolyl endopeptidase extracted from rat brain in a 25 mM sodium phosphate buffer (100 μl) [123 unit/1, pH 6.8, containing 1 mM dithiothreitol and 0.5 mM EDTA, prepared by the method described in J. Neurochem., 35, 527 (1980)] was preincubated at 30° C. for 30 minutes. Thereto was added a 0.2 mM solution of 7-(N-succinyl-glycyl-prolyl)-4-methylcoumarinamide (Peptide Institute, INC.) in a 0.1M potassium sodium phosphate buffer (pH 7.0) (125 μl), and the mixture was incubated at 30° C. for 1 hour. The reaction mixture was immersed in ice (0° C.) to terminate the reaction, and the fluorescence (a1) was determined ten minutes later (excitation at 370 nm and emission at 440 nm). Concurrently, there were conducted the experiment wherein, in the above system, the prolyl endopeptidase solution was substituted for a 25 mM sodium phosphate buffer (pH 6.8, containing 1 mM dithiothreitol and 0.5 mM EDTA) and the experiment wherein the solution of the compounds of the present invention was also substituted for a 0.1M potassium sodium phosphate buffer (pH 7.0). Each fluorescence (a2 and a3) was also determined respectively [See Tanpakushitsu Kakusan Koso, 29, 127 (1984)]. The prolyl endopeptidase-inhibition rate was calculated by the following formula, and IC50, a concentration of a compound producing 50% inhibition, was estimated by semilogarithmic graph paper. [formula]

[3] = biological target: T3, chymotrypsin (Bos taurus, UniProt P00766); assay: Chymotrypsin-Inhibitory Activity; type: biochemical, bovine; conditions: 1 × 10^-6 M; read-out: Inhibition rate, chymotrypsin
T3 construct: purchased Sigma; host or cells: bovine pancreas
Protocol: (§2) Similarly, by following the procedure mentioned above, but employing a 50 mM Tris-HCl buffer (pH 8.0) as a buffer for measurement, a 0.2 μM solution of chymotrypsin (derived from bovine pancrease, Sigma) in the same buffer as an enzyme solution and a 200 μM solution of 7-(N-succinyl-leucyl-leucyl-valyl-tyrosyl)-4-methylcoumarinamide (Peptide Institute, Inc.) in the same buffer as a substrate solution. Each fluorescence (c1, c2 and c3) was also determined, respectively.
as §1

[4] = system: leucine aminopeptidase; assay: Leucine Aminopeptidase-Inhibitory Activity; type: biochemical, swine; conditions: 1 × 10^-6 M
Protocol: as §2, with “leucine aminopeptidase” for “chymotrypsin”, “swine kidney,” for “bovine pancrease,”, “7-(leucyl-4-methylcoumarinamide” for “7-(N-succinyl-leucyl-leucyl-valyl-tyrosyl)-4-methylcoumarinamide”, “(d1, d2” for “(c1, c2”, “d3)” for “c3)”
as §1

[5] = biological target: T4, cathepsin B (Bos taurus, UniProt P07688); assay: Cathepsin B-Inhibitory Activity; type: biochemical, bovine; conditions: 1 × 10^-6 M; read-out: Inhibition rate, cathepsin B
T4 construct: purchased Sigma; host or cells: bovine spleen
Protocol: Similarly, by following the procedure mentioned above, but employing a 100 mM sodium phosphate buffer (pH 6.0; containing 1.33 mM EDTA Na2) as a buffer for measurement, a 0.02 μM solution of cathepsin B (derived from bovine spleen, Sigma) in the same buffer as an enzyme solution and a 200 μM solution of 7-(N-benzyloxycarbonyl-phenylaranyl-arginyl)-4-methylcoumarinamide (Peptide Institute, Inc.) in the same buffer as a substrate solution. Each fluorescence (f1, f2 and f3) was also determined, respectively.
as §1

[6] = biological target: T5, elastase (Sus scrofa, UniProt P00772); assay: Elastase-Inhibitory Activity; type: biochemical, swine; conditions: 1 × 10^-6 M; read-out: Inhibition rate, elastase
T5 construct: purchased Sigma; host or cells: swine pancreas
Protocol: Similarly, by following the procedure mentioned above, but employing a 1 mM Tris-HCl buffer (pH 8.5) as a buffer for measurement, a 0.2 μM solution of elastase (derived from swine pancreas, Sigma) in the same buffer as an enzyme solution and a 200 μM solution of 7-(N-succinyl-aranyl-prolyl-aranyl)-4-methylcoumarinamide (Peptide Institute, Inc.) in the same buffer as a substrate solution. Each fluorescence (e1, e2 and e3) was also determined, respectively.
as §1

T2 sequence (O70196 whole entry): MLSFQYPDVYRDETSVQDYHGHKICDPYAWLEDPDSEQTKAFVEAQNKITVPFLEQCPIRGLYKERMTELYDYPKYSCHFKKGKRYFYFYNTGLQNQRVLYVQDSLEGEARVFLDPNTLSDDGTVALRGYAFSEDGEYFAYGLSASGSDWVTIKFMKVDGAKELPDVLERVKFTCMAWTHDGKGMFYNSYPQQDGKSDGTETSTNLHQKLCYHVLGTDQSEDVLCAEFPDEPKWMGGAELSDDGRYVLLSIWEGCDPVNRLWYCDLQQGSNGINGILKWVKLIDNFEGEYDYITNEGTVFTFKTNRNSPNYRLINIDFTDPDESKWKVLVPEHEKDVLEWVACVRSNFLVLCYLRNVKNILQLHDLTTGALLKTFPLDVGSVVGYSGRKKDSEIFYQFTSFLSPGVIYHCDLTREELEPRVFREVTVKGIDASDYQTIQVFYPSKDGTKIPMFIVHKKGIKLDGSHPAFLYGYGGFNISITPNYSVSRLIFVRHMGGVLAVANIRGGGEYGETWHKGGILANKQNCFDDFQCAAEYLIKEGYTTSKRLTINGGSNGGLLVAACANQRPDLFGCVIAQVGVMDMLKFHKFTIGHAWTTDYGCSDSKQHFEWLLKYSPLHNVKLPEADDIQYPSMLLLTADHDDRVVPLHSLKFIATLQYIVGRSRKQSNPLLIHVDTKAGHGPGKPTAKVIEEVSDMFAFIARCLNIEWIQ
T5 sequence (P00772 27-266): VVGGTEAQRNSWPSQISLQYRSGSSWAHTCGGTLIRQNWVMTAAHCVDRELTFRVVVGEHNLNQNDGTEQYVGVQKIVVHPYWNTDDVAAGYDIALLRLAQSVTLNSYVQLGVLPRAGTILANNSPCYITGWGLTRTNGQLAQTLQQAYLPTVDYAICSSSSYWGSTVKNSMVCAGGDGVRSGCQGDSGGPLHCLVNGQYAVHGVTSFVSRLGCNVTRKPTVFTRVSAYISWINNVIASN

SMILES	inhibition at 1 µM [1] [%]	inhibition at 1 µM [2] [%]	IC50 [2] [nM]	inhibition at 1 µM [3] [%]	Inhibition rate, leucine aminopeptidase [4] [%]	inhibition at 1 µM [5] [%]	inhibition at 1 µM [6] [%]
O=C[C@@H]1CCCN1C(=O)CCC(=O)NCCCN1CCCC1=O [Compound 11, N-{4-Oxo-4-[3-(2-oxo-1-pyrrolidinyl)propylamino]butanoyl}-L-prolinal]	0	97	25	0	0	0	0
N#C[C@@H]1CCCN1C(=O)CCC(=O)NCc1ccc(Cl)cc1 [Compound 22, (2S)-1-[4-Oxo-4-(4-chlorobenzylamino)butanoyl]-2-cyanopyrrolidine]	0	100	10	0	0	0	0
